Results as given in paper PMC10619556, “Comprehensive Evaluation System for Post-Metabolic Activity of Potential Thyroid-Disrupting Chemicals” (Journal of Microbiology and Biotechnology, 2023).
Counter-ions that a name gives are not always drawn. Like-named read-outs stand apart in the source and are kept apart here.

How the values were obtained:
[1] = test system: thyroid hormone receptor (THR); assay: hTRE_HeLa THR transcriptional activity (nano luciferase reporter) assay with rat liver S9 mixtures; assay type: cell-based, human; settings: hTRE_HeLa cells; for THR agonist classification (positive if >= 10% of activity of 100 nM T3): parent, inactive S9, phase I and phase I+II groups, before and after S9 reaction; for THR transcriptional activity after phase I+II reaction: phase I+II group
Method: The hTRE_HeLa cell line, obtained from the MFDS, was used to detect thyroid hormone receptor (THR) agonists through transcriptional activation analysis, utilizing a stably modified thyroid receptor-reactive human cervical cancer cell line along with one plasmid from a nano luciferase reporter. For cell line maintenance, minimum essential media (MEM, Gibco, USA) supplemented with 10% FBS, 1% penicillin/streptomycin (P/S), and 1 ml Hygromycin B (InvivoGen, USA) was used. The hTRE_Hela cell line was conditioned and treated in test medium containing Phenol red free of MEM (Gibco) supplemented with 10% charcoal-stripped FBS (CS-FBS), 1% P/S, and 1 mL Hygromycin B. hTRE_HeLa cells were maintained in 37°C and 5% CO2 incubator. hTRE_HeLa cells were seeded with 5 × 10^3 cells per well in the 96-well plate for 24 h and treated with EDCs and S9 mixtures for 48 h.
The S9 mixture for phase I metabolism was prepared with 0.1 mg/ml rat liver S9, 2 × 10^-3 M NADPH, 3 × 10^-2 M G-6-P, 5 × 10^-2 M MgCl2, and 3 units/ml G-6-PD. For phase I+II metabolism, 2 × 10^-2 M GSH, 5 × 10^-3 M UDPGA, and 2 × 10^-5 M PAPS were additionally included to the S9 mixture. […] The S9 mixtures were added to the aforementioned test medium to be diluted 10 times. After 24 h of seeding, hTRE_HeLa cells were treated with the S9 mixtures pre-incubated for 6 h and EDCs with different concentrations.
The vehicle control (VC) included only 0.145% of DMSO containing 9 × 10^-12 M 9-cis-Retinoic acid. The final volume for each well was 100 μl. […] After treatment, 10 μl of treated medium was transferred to a new plate, to which 40 μl of test medium and 50 μl of Nano-Glo luciferase reagent (Promega, USA) were added. After a 10 min incubation, the luciferase activity was measured using a luminescence reader (Glomax Discover, Promega). For data analysis, relative transcriptional activity (RTA) of PC was set to 100%, and RTA of VCcontrol was set to 0%. The % to PC value of EDCs was calculated to (EDCs – VCtest) / (PC – VCcontrol). The VCtest was set to the VC for each test group. If the EDC was greater than or equal to 10% of PC, the EDC was determined to be a THR agonist-positive chemical. The data were described by the mean ± standard deviation.

[2] = Sprague-Dawley, rat, pH 7.4
[3] = In vitro metabolic reaction using rat liver S9 fraction with LC-MS / GC-MS metabolic profiling; settings: for Metabollic rate: rat liver S9, phase I+II reaction vs inactivated S9 control, BDE28 and 4,4'-DIDBP by GC-MS, others by LC-MS; for Metabolic rate (parent decreased by) after the reaction: rat liver S9, phase I+II biotransformation
[4] = concentration not given, RTA with 100 nM T3 (PC) = 100%

Ic1ccc(-c2ccc(I)cc2)cc1 [4,4’-DIDBP, 4,4'-diiodobiphenyl]
THR agonist classification (positive if >= 10% of activity of 100 nM T3) [1]: THR agonistic negative | Metabollic rate [2]: 82%

CCCCc1oc2ccccc2c1C(=O)c1cc(I)c(OCCN(CC)CC)c(I)c1 [Amiodarone, amiodarone hydrochloride]
THR agonist classification (positive if >= 10% of activity of 100 nM T3) [1]: THR agonistic negative

Brc1ccc(Oc2ccc(Br)cc2Br)cc1 [BDE28, BDE No. 28]
THR agonist classification (positive if >= 10% of activity of 100 nM T3) [1]: THR agonistic negative | Metabollic rate [3]: 99%

O=C(c1ccc(O)cc1O)c1ccc(O)cc1O [BP-2, 2,2',4,4'-tetrahydroxybenzophenone]
THR agonist classification (positive if >= 10% of activity of 100 nM T3) [1]: THR agonistic negative | Metabollic rate [3]: 11%

CC(C)(c1ccc(O)cc1)c1ccc(O)cc1 [BPA, bisphenol A]
THR agonist classification (positive if >= 10% of activity of 100 nM T3) [1]: THR agonistic negative | Metabollic rate [2]: 52%

Cc1cc(C(C#N)c2ccc(Cl)cc2)c(Cl)cc1NC(=O)c1cc(I)cc(I)c1O (centres unmarked) [Closantel, closantel]
THR agonist classification (positive if >= 10% of activity of 100 nM T3) [1]: THR agonistic negative | Metabollic rate [2]: 49%

O=C(O)CCc1cc(I)c(Oc2ccc(O)cc2)c(I)c1 [DITPA, 3,5-diiodothyropropionic acid]
THR agonist classification (positive if >= 10% of activity of 100 nM T3) [1]: THR agonistic positive | THR transcriptional activity after phase I+II reaction [1, 4]: 30.7 ± 1.8% | Metabolic rate (parent decreased by) after the reaction [3]: 29%

C[C@]12CC[C@@H]3c4ccc(O)cc4CC[C@H]3[C@@H]1CC[C@@H]2O [E2, 17β-estradiol]
THR agonist classification (positive if >= 10% of activity of 100 nM T3) [1]: THR agonistic negative | Metabollic rate [3]: 44%

Cc1cc(OCC(=O)O)cc(C)c1Cc1ccc(O)c(C(C)C)c1 [GC-1, sobetirome]
THR agonist classification (positive if >= 10% of activity of 100 nM T3) [1]: THR agonistic positive | THR transcriptional activity after phase I reaction ([1]; phase I group, concentration not given, RTA with 100 nM T3 (PC) = 100%): 166.3 ± 12.0% | THR transcriptional activity after phase I+II reaction [1, 4]: 160.6 ± 8.6% | Metabolic rate (parent decreased by) after the reaction [3]: 15%

COc1c(O)cc2oc(-c3ccc(O)cc3)cc(=O)c2c1O [Hispidulin, hispidulin]
THR agonist classification (positive if >= 10% of activity of 100 nM T3) [1]: THR agonistic negative

CC12CC1(C)C(=O)N(c1cc(Cl)cc(Cl)c1)C2=O (centres unmarked) [Procymidone, procymidone]
THR agonist classification (positive if >= 10% of activity of 100 nM T3) [1]: THR agonistic negative | Metabollic rate [2]: 55%

O=C(Nc1ccc(Oc2ccc(Cl)cc2)c(Cl)c1)c1cc(I)cc(I)c1O [Rafoxanide, rafoxanide]
THR agonist classification (positive if >= 10% of activity of 100 nM T3) [1]: THR agonistic negative | Metabollic rate [3]: 51%

N[C@@H](Cc1cc(I)c(Oc2ccc(O)c(I)c2)c(I)c1)C(=O)O [T3, 3,3’,5-triiodo-L-thyronine]
Induction compared to the VC value ([1]; T3 100 nM as positive control): ≥ 4.8 fold | THR agonist classification (positive if >= 10% of activity of 100 nM T3) [1]: THR agonistic positive | Metabolic rate (parent decreased by) after the reaction [3]: 3%

N[C@@H](Cc1cc(I)c(Oc2cc(I)c(O)c(I)c2)c(I)c1)C(=O)O [T4, Levothyroxine]
THR agonist classification (positive if >= 10% of activity of 100 nM T3) [1]: THR agonistic positive
